The subject of test [1] is NFκB promoter. Description: NFκB promoter activation in Hek blue TLR4 cells (Quanti Blue). Type of test: cell-based, human. The note with it: 10% bacteria supernatant, 22 h. How it is done: Once grown the Human Hek blue cells were plated in 96 well plates at 25,000 cells/well in 4 replicates. One set of cells were treated with α-synuclein A53T (1 ug/mL) alone or with 10% of bacteria supernatant from MRX0029 for 22 h. The second set of cells were treated with LPS (10 ng/mL, from Salmonella enterica serotype Typhimurium, Sigma Aldrich, cat n. L6143) alone or with 10% of bacteria supernatant from MR029 for 22 h. The cells were subsequently spun down and 20 ul of the supernatant was mixed with 200 ul of Quanti Blue reagent (InvivoGen, cat n. rep-qb2), incubated for 2 h and absorbance read at 655 nm.

In test [2] the test system is differentiated SHSY-5Y neuroblastoma cells. Description: ROS generated by TBHP (DCFDA fluorescence). To be noted: 100 uM TBHP, 10% bacteria supernatant, 2 h. It counts as cell-based, human. How it is done: SHSY-5Y cells were plated in black flat bottom 96 well plate at density of 5000 cells/well and placed in the CO2 incubator. After 24 h, media were replaced with differentiation medium (growth medium containing 1% FBS) and 10 μM retinoic acid. Differentiation medium was replaced every other day. On Day 10 the differentiation medium was removed and cells were washed with pre-warmed PBS and stained with 10 uM DCFDA molecular probe for 20 mins in growth medium containing 1% FBS. Then cells were washed with pre-warmed PBS again and treated with 100 uM TBHP in the presence or absence of 10% bacteria supernatant for 2 h. Fluorescence intensity was measured using TECAN plate reader at Ex/Em 485/530 nm.

Test [3] deals with class II HDACs. Description: Specific HDAC activity analysis (fluorogenic assay kit, BPS Bioscience). It counts as biochemical. The note with it: data not shown. The procedure: Specific HDAC inhibition activity was analysed for HDAC1, 2, 3, 4, 5, 6, 9 using fluorogenic assay kits for each type of HDAC (BPS Bioscience, CA). Assays were conducted according to manufacturer's instructions and each sample were performed in replicates. Cell free supernatants were diluted 1 in 10 and exposed to specific HDAC proteins provided in the kit to maintain consistency between methods.
The specific HDAC inhibition profile of the test bacteria strain was investigated. Specific HDAC inhibition assays (BPS Bioscience, CA) were carried out for Class I and Class II HDACs. The ability of the bacterial strain to inhibit HDAC enzymes was compared to butyrate, hexanoic and valeric acid (FIGS. 14 and 15).

For test [4], the system named is SH-SY5Y cells. As to the kind of experiment: MAP2 and β3-tubulin immunoblotting / confocal microscopy. To be noted: treated 24 h; actin loading control. Type of test: cell-based, human. How it is done: Cells were seeded onto 8-well chamber slides (Marienfeld Laboratory Glassware) at 5×10^4 cells/well overnight and were treated with 10% bacterial supernatant for 24 h. For differentiation, cells were treated with 10 nM RA for 5 days before treating with cell-free bacterial supernatant for 24 h. Afterwards, the cells were fixed with 4% paraformaldehyde in PBS for 20 minutes at room temperature (RT). Fixed cells were washed with PBS, and permeabilized with 1% Triton X-100 in PBS for 10 minutes. After washing with PBS, the slides were incubated with blocking buffer (4% BSA/PBS) for 1 h at RT before adding anti-MAP2 antibody or β3-tubulin (sc-74421 and sc-80005 respectively, Santa Cruz Biotechnology Inc) diluted in 1% BSA/PBS for 12 h at 4° C. They were then washed twice with PBS, followed by incubation with Alexa Flour 488 conjugated anti-mouse (Molecular Probes Inc) and Alexa Flour 594 conjugated Phalloidin (ab176757, Abcam) for 1 h at RT. […]
SH-SY5Y cells cultured under the indicated conditions described above, treated with MRx0005 and MRx0029 for 24 h and then lysed in RIPA buffer containing cocktail of protease inhibitors (Roche Diagnostics, UK). […] The blots were then incubated with the appropriate horseradish peroxidase (HRP)-conjugated secondary antibody, and proteins were detected by chemiluminescence detection kit (Pierce Biotechnology, Rockford, Ill.). […]

The values that follow come from patent US11660319B2, “Compositions comprising bacterial strains” (priority 2017, dated 2023).

As for Megasphaera massiliensis [MRx0029], in test [1] (LPS 10 ng/mL), the “activation of the NFκB promoter by LPS” value is on record as “inhibited”. Further, the “activation of the NFκB promoter by α-synuclein” value in test [1] (α-synuclein A53T 1 ug/mL) is on record as “not inhibited”. Further, the ROS production result in test [2] was “inhibit”. Moreover, the “Inhibition of class II HDACs” value in test [3] was “not as significant”. For the same substance, in test [4], the “level expression of MAP2 (immunoblot)” value is recorded as “increase”.
